Measurements taken from ChEMBL document CHEMBL3593184, “Synthesis of (2-amino)ethyl derivatives of quercetin 3-O-methyl ether and their antioxidant and neuroprotective effects” (Bioorg Med Chem, 2015).

What was measured:
[1] = Antioxidant activity assessed as superoxide anion radical scavenging activity after 20 mins by xanthine/xanthine oxidase method; format: physicochemical
[2] = Antioxidant activity assessed as DPPH radical scavenging activity after 30 min; format: physicochemical; conditions: DPPH radical solution
Liver microsome = assay: Antioxidant activity in rat liver microsomes assessed as reduction in iron-ascorbic acid-induced lipid […] activity after 30 mins by TBARS assay; format: functional; conditions: 0.5 h
Rattus norvegicus [3] = assay: (§1) Neuroprotective activity against middle cerebral artery occlusion-induced focal cerebral ischemia in Sprague-Dawley rat assessed as reduction in absolute infarct volume in striatum at 10 mg/kg, iv administered 30 mins after MCA occlusion measured after 2 hrs of reperfusion by TTC staining (reference value: 41.9 +/- 29 mm'3); format: functional
Rattus norvegicus [4] = assay: as §1, with “cortex” for “striatum”, “195.6” for “41.9”, “11.5” for “29”; format: functional
Rattus norvegicus [5] = assay: as §1, with “corrected total” for “absolute”, “volume” for “volume in striatum”, “163.2” for “41.9”, “9.4” for “29”; format: functional
Rattus norvegicus [6] = assay: as §1, with “infarct total” for “infarct”, “volume” for “volume in striatum”, “237.4” for “41.9”, “13.1” for “29”; format: functional
Rattus norvegicus [7] = assay: Neuroprotective activity against middle cerebral artery occlusion-induced focal cerebral ischemia in Sprague-Dawley rat assessed as reduction in edema at 10 mg/kg, iv administered 30 mins after MCA occlusion measured after 2 hrs of reperfusion by TTC staining (reference value: 13 +/- 0.7 %); format: functional; parameters: scale not given: the % may be the effect or the level left
[8] = Aqueous solubility of the compound at room temperature by HPLC; format: physicochemical; conditions: water

Structure (SMILES)	IC50 [1]	IC50 [2]	IC50 (Liver microsome)	Activity (Rattus norvegicus [3])	Activity (Rattus norvegicus [4])	Activity (Rattus norvegicus [5])	Activity (Rattus norvegicus [6])	Activity (Rattus norvegicus [7])	solubility [8]
COc1c(-c2cc(O)c(O)c(O)c2)oc2cc(O)cc(OCCN3CCCC3)c2c1=O	> 100 µM	27 µM	10.9 µM	–	–	–	–	–	–
COc1c(-c2ccc(O)c(O)c2)oc2cc(O)cc(OCCN3CCCCC3)c2c1=O	5.8 µM	> 100 µM	25.1 µM	–	–	–	–	–	–
COc1c(-c2cc(O)c(O)c(O)c2)oc2cc(OCCN3CCCCC3)cc(O)c2c1=O	> 100 µM	26.3 µM	10.5 µM	–	–	–	–	–	–
COc1c(-c2cc(O)c(O)c(O)c2)oc2cc(OCCN3CCCC3)cc(O)c2c1=O	> 100 µM	16.8 µM	10.1 µM	–	–	–	–	–	–
COc1c(-c2ccc(O)c(O)c2)oc2cc(O)cc(OCCN3CCCC3)c2c1=O	4.58 µM	84 µM	23.3 µM	–	–	–	–	–	–
COc1c(-c2ccc(O)c(O)c2)oc2cc(OCCN3CCCCC3)cc(O)c2c1=O.Cl	8.15 µM	20.7 µM	19.2 µM	30.1 mm3	93.6 mm3	92.1 mm3	128.9 mm3	6.7%	> 50 mM
CCN(CC)CCOc1cc(O)cc2oc(-c3cc(O)c(O)c(O)c3)c(OC)c(=O)c12	> 100 µM	22.1 µM	11.2 µM	–	–	–	–	–	–
COc1c(-c2ccc(O)c(O)c2)oc2cc(O)cc(O)c2c1=O [3-O-METHYLQUERCETIN]	17.4 µM	14.2 µM	19 µM	27.2 mm3	79.9 mm3	78.8 mm3	108.8 mm3	5.5%	> 50 mM
COc1c(-c2cc(O)c(O)c(O)c2)oc2cc(O)cc(OCCN3CCOCC3)c2c1=O	> 100 µM	23.2 µM	12 µM	–	–	–	–	–	–
COc1c(-c2cc(O)c(O)c(O)c2)oc2cc(OCCN3CCOCC3)cc(O)c2c1=O	> 100 µM	26 µM	10.2 µM	–	–	–	–	–	–
CCN(CC)CCOc1cc(O)c2c(=O)c(OC)c(-c3ccc(O)c(O)c3)oc2c1	8.14 µM	27.4 µM	15.8 µM	–	–	–	–	–	–
COc1c(-c2ccc(O)c(O)c2)oc2cc(O)cc(OCCN3CCOCC3)c2c1=O	11.2 µM	> 100 µM	37.4 µM	–	–	–	–	–	–
CCN(CC)CCOc1cc(O)c2c(=O)c(OC)c(-c3cc(O)c(O)c(O)c3)oc2c1.Cl	> 100 µM	22.9 µM	11.5 µM	39.3 mm3	123.4 mm3	108.9 mm3	164 mm3	9.4%	> 50 mM
COc1c(-c2ccc(O)c(O)c2)oc2cc(OCCN3CCCC3)cc(O)c2c1=O	11.4 µM	18.9 µM	21.8 µM	–	–	–	–	–	–
COc1c(-c2cc(O)c(O)c(O)c2)oc2cc(O)cc(OCCN3CCCCC3)c2c1=O	> 100 µM	32.4 µM	11.9 µM	–	–	–	–	–	–
O=C1O[C@H]([C@@H](O)CO)C(O)=C1O [ASCORBIC ACID]	> 50 µM	41 µM	–	–	–	–	–	–	–
COc1c(-c2ccc(O)c(O)c2)oc2cc(OCCN3CCOCC3)cc(O)c2c1=O	7.41 µM	47.2 µM	16.2 µM	–	–	–	–	–	–
CCN(CC)CCOc1cc(O)cc2oc(-c3ccc(O)c(O)c3)c(OC)c(=O)c12	6.53 µM	> 100 µM	23.3 µM	–	–	–	–	–	–
